Laboratory results as given in the supplement of paper PMC10307832.

Legend:
Assay in all cases: relative viability (nuclei count vs DMSO), 5 days (fraction); higher = more cells survive
Irinotecan + Bortezomib = compound: CCc1c2c(nc3ccc(OC(=O)N4CCC(N5CCCCC5)CC4)cc13)-c1cc3c(c(=O)n1C2)COC(=O)[C@]3(O)CC [Irinotecan] + CC(C)C[C@H](NC(=O)[C@H](Cc1ccccc1)NC(=O)c1cnccn1)B(O)O [Bortezomib] (partner 0.002 µM)
Procedure, shortened: (§1)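 Relative viability divides the nuclei count in treated wells by that in vehicle wells. Lung cancer cell lines were seeded in 1536-well plates, dosed by pin tool the next day, and fixed and stained after 5 days in one step with final 0.05% Triton X-100, 1% formaldehyde and 1 ug/ml Hoechst. Dosing was a single drug or a fixed anchor-drug dose plus five library-drug doses (not always all listed) in √10 steps, and values are medians of duplicate plates imaged at 4×.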

MK-8033 + Crizotinib = compound: Cn1cc(-c2cnc3ccc4ccc(CS(=O)(=O)NCc5ccccn5)cc4c(=O)c3c2)cn1 [MK-8033] + C[C@@H](Oc1cc(-c2cnn(C3CCNCC3)c2)cnc1N)c1c(Cl)ccc(F)c1Cl [Crizotinib] (partner 1 µM)
Procedure, shortened: as §1

MK-8033 + Lapatinib = compound: Cn1cc(-c2cnc3ccc4ccc(CS(=O)(=O)NCc5ccccn5)cc4c(=O)c3c2)cn1 [MK-8033] + CS(=O)(=O)CCNCc1ccc(-c2ccc3ncnc(Nc4ccc(OCc5cccc(F)c5)c(Cl)c4)c3c2)o1 [Lapatinib] (partner 2 µM)
Procedure, shortened: as §1

MK-8033 + Foretinib = compound: Cn1cc(-c2cnc3ccc4ccc(CS(=O)(=O)NCc5ccccn5)cc4c(=O)c3c2)cn1 [MK-8033] + COc1cc2c(Oc3ccc(NC(=O)C4(C(=O)Nc5ccc(F)cc5)CC4)cc3F)ccnc2cc1OCCCN1CCOCC1 [Foretinib] (partner 0.25 µM)
Procedure, shortened: as §1

Cell Line	relative viability (Irinotecan + Bortezomib; first compound 0.6325 µM)	relative viability (Irinotecan + Bortezomib; first compound 2 µM)	relative viability (Irinotecan + Bortezomib; first compound 6.325 µM)	relative viability (Irinotecan + Bortezomib; first compound 20 µM)	relative viability (MK-8033 + Crizotinib; first compound 0.02 µM)	relative viability (MK-8033 + Crizotinib; first compound 0.06325 µM)	relative viability (MK-8033 + Crizotinib; first compound 0.2 µM)	relative viability (MK-8033 + Crizotinib; first compound 0.6325 µM)	relative viability (MK-8033 + Crizotinib; first compound 2 µM)	relative viability (MK-8033 + Lapatinib; first compound 0.02 µM)	relative viability (MK-8033 + Lapatinib; first compound 0.06325 µM)	relative viability (MK-8033 + Lapatinib; first compound 0.2 µM)	relative viability (MK-8033 + Lapatinib; first compound 0.6325 µM)	relative viability (MK-8033 + Lapatinib; first compound 2 µM)	relative viability (MK-8033 + Foretinib; first compound 0.02 µM)	relative viability (MK-8033 + Foretinib; first compound 0.06325 µM)	relative viability (MK-8033 + Foretinib; first compound 0.2 µM)	relative viability (MK-8033 + Foretinib; first compound 0.6325 µM)	relative viability (MK-8033 + Foretinib; first compound 2 µM)
NCI-H1993	1.1	0.968	0.613	0.399	0.734	0.658	0.836	0.668	0.819	0.765	0.677	0.7	0.802	0.828	0.696	0.774	0.789	0.73	0.949
CAL-12T	0.944	0.978	0.491	0.324	0.62	0.608	0.646	0.693	0.474	0.604	0.566	0.601	0.868	0.591	1.05	1.14	1.03	1.09	1.11
NCI-H1299	0.932	0.824	0.487	0.415	0.956	0.925	0.92	0.946	0.971	0.989	0.947	0.964	0.965	0.982	1.09	1.08	1.02	1.13	1.06
COR-L23	0.506	0.396	0.211	0.113	0.58	0.721	0.489	0.73	0.506	1.17	0.997	0.7	0.941	0.901	0.934	0.997	0.986	1.04	0.993
NCI-H2347	0.512	0.918	0.493	0.555	0.752	0.667	0.665	0.618	0.823	0.872	0.858	0.903	0.781	0.914	1.21	1.01	0.805	0.839	0.939
LU99A	0.42	0.326	0.18	0.249	0.692	0.542	0.619	0.491	0.525	1.03	0.892	0.97	0.893	0.764	0.903	0.716	0.834	0.841	0.743
COR-L 105	0.676	0.798	0.627	0.291	0.797	0.696	0.917	0.861	0.802	0.286	0.354	0.32	0.361	0.346	1.35	0.976	0.992	1.05	0.907
PC-3 [JPC-3]	0.703	0.826	0.579	0.296	0.963	–	0.902	0.981	0.936	0.449	–	0.444	0.477	0.482	0.977	0.952	0.994	1	1.03
